Where a SMILES comes first, the peptide text is derived from it.
Legend:
[1] = tested on: non-cancerous fibroblasts; assay: Subsequent experiments testing cancerous and non-cancerous cell lines; type: cell-based
[2] = tested on: short term primary culture of human fibroblasts; assay: Experiment 2 further experiment, cells viewed under phase contrast microscopy; type: cell-based; conditions: for appearance of cells: 2.5 mM peptide, 2 days plus a further 7 days, FIG. 14; for cytotoxicity to cultured primary cultures of normal human cells: conclusion of Experiment 2
Method: In a further experiment, using a different batch of synthesized peptide, RT112 cells (a human bladder cancer cell line), HT29 cells (a human colon cancer cell line) and MGHU cells (a human bladder cancer cell line) were plated as described above. In parallel, a short term primary culture of human fibroblasts was plated in 48 well plates. After 24 h, the tissue culture medium was removed from each well and replaced with Hams F12 complete tissue culture medium (without foetal calf serum) supplemented with either 2.5 mM SEQ ID NO:1 or 2.5 mM SEQ ID NO:4. After culturing for 2 days, foetal calf serum was added to a concentration of 10%. The cells were then cultured for a further 7 days and viewed under phase contrast microscopy.
These peptides are not cytotoxic to cultured primary cultures of normal human cells.

SKMEL-2 cells = assay: % viability by visual observation under phase contrast microscopy, 48 well, Experiment 2 first experiment; type: cell-based, human
Method: (§1) In a first experiment, MGHU-1 cells (a human bladder cancer cell line), were plated in 48 well tissue culture dishes in 0.2 ml complete Hams F12 tissue culture medium supplemented with 10% foetal calf serum. SKMEL-2 cells (a human malignant melanoma cell line), HX34 cells (a human malignant melanoma cell line) and H441 cells (a human lung cancer cell line) were plated under identical conditions. The cells were incubated at 37° C. in an atmosphere of 5% CO2.
(§2) After 24 h, the culture medium was then removed from each well and replaced by Hams F12 complete tissue culture medium (without foetal calf serum). The culture medium added to each well was supplemented with a peptide having the sequence set out in SEQ ID NO:1, SEQ ID NO:2 or SEQ ID NO:3 at a concentration of either 0.5, 1.0 or 5.0 mM in such a way that each cell line was exposed to each peptide at each concentration.
(§3) The cells were then cultured for two days. Foetal calf serum was then added to a final concentration of 10%, and the cells were left for a further 5 days. The % viability of the cells in each well was calculated by visual observation under phase contrast microscopy. The effect of the peptides having the amino acid sequences set out in SEQ ID NO:1 and SEQ ID NO:3 on the viability of the SK MeI-2, MGHU-1, HX34 and H441 cell lines is shown in FIG. 12. […] Where the concentration of SEQ ID NO:1 was 1.0 mM, 100% of MGHU-1 cells were killed. The viability of the other cell lines was not affected.

HX34 cells = assay: as above; type: cell-based, human
Method: as §1, §2, §3

MGHU-1 cells = assay: as above; type: cell-based, human
Method: as §1, §2, §3

H441 cells = assay: as above; type: cell-based, human
Method: as §1, §2, §3

[3] = tested on: Normal non-cancerous fibroblasts; assay: Experiments 3 and 4, 96 well plates, viability by phase contrast microscopy; type: cell-based
Method: (§4) Normal non-cancerous fibroblasts and cancer cells were exposed to the linear hexamer PRGPRP SEQ ID NO: 5 in 96 micro well plates using the same protocol as for SEQ. ID NO: 1 as previously described. The percent viability of the cells in each well was calculated by visual observation under phase contrast microscopy as previously described.
(§5) In order to define structure/function relationships different peptides were constructed SEQ ID NOS 5-16. Normal non-cancerous fibroblasts and cancer cells were exposed to 5 mM of these peptides in 96 well plates as previously described. The sequence of these peptides is listed below. Results were scored at 21 days.

cancer cells = assay: as above; type: cell-based; conditions: summary statement
Method: as §4, §5

[4] = tested on: MGHU-1 bladder cancer cells; assay: Experiment 6, cell growth by daily phase-contrast microscopy, 96 well plates; type: cell-based, human
Method: (§6) Cancer cells and non-cancerous fibroblasts were separately seeded at 10^2 to 10^4 cells in 200 μl of Hams F12 tissue culture medium plus 10% fetal calf serum in 96 well plates and exposed to varying concentrations of a peptide having an amino acid sequence set out in SEQ ID NO: 17 ranging from 5.0 μM to 100 μM. Cell growth was studied by daily phase-contrast microscopy over 25 days.

[5] = tested on: normal non cancerous fibroblasts; assay: as above; type: cell-based
Method: as §6

[6] = visual observation of cell density and viability
[7] = any concentration (0.5, 1.0 or 5.0 mM), day 7

## CC(C)[C@H](NC(=O)[C@@H]1CCCN1C(=O)[C@H](CCCNC(=N)N)NC(=O)[C@@H]1CCCN1C(=O)CNC(=O)[C@H](CCCNC(=N)N)NC(=O)[C@@H]1CCCN1C(=O)[C@@H]1CCCN1C(=O)[C@@H](N)Cc1ccccc1)C(=O)N[C@@H](CCC(N)=O)C(=O)O [SEQ ID NO:1] (H-FPPRGPRPVQ-OH; N-terminus and C-terminus assumed)
[1]; between days 20 and 25
  cell killing: specific killing of cancerous cells and not non-cancerous fibroblasts
[1]; within the first seven days, cells then recovered
  cell killing: non specific killing
[2]
  appearance of cells: appear to be healthy
  cytotoxicity to cultured primary cultures of normal human cells: not cytotoxic

## CC(C)[C@H](NC(=O)[C@@H]1CCCN1C(=O)[C@H](CCCNC(=N)N)NC(=O)[C@@H](NC(=O)CNC(=O)[C@H](CCCNC(=N)N)NC(=O)[C@@H]1CCCN1C(=O)[C@@H](NC(=O)[C@@H](N)Cc1ccccc1)[C@@H](C)O)[C@@H](C)O)C(=O)N[C@@H](CCC(N)=O)C(=O)O [SEQ ID NO:2] (H-FTPRGTRPVQ-OH; N-terminus and C-terminus assumed)
[2]
  cytotoxicity to cultured primary cultures of normal human cells: not cytotoxic
SKMEL-2 cells; [6]
  cytotoxicity: cytotoxic
  cytotoxicity compared with SEQ ID NO:1: less cytotoxic
HX34 cells; [6]
  cytotoxicity: cytotoxic
  cytotoxicity compared with SEQ ID NO:1: less cytotoxic
MGHU-1 cells; [6]
  cytotoxicity: cytotoxic
  cytotoxicity compared with SEQ ID NO:1: less cytotoxic
H441 cells; [6]
  cytotoxicity: cytotoxic
  cytotoxicity compared with SEQ ID NO:1: less cytotoxic

## CC(C)[C@H](NC(=O)[C@H](CCCNC(=N)N)NC(=O)[C@H](Cc1ccccc1)NC(=O)[C@@H]1CCCN1C(=O)CNC(=O)[C@@H]1CCCN1)C(=O)N1CCC[C@H]1C(=O)N[C@@H](CCC(N)=O)C(=O)N1CCC[C@H]1C(=O)N[C@@H](CCCNC(=N)N)C(=O)O [SEQ ID NO:4, reference compound] (H-PGPFRVPQPR-OH)
[2]
  appearance of cells: appear to be healthy

## N=C(N)NCCC[C@H](NC(=O)[C@@H]1CCCN1)C(=O)NCC(=O)N1CCC[C@H]1C(=O)N[C@@H](CCCNC(=N)N)C(=O)N1CCC[C@H]1C(=O)O [SEQ ID NO: 5, PRGPRP] (H-PRGPRP-OH)
[3]; 21 days and beyond
  state of fibroblasts: remained healthy
[3]; summary statement
  growth of non-cancerous cells tested: non-inhibitory
Cancer cells
  cytotoxicity to cancer cells tested: cytotoxic

## ATTEGTETVQ [SEQ ID NO:3, reference compound]
SKMEL-2 cells; [7]
  viability: did not affect viability
HX34 cells; [7]
  viability: did not affect viability
MGHU-1 cells; [7]
  viability: did not affect viability
H441 cells; [7]
  viability: did not affect viability

## cyclo-[PRGPRPVPRGPRPVPRGPRPV] (cyclic) [SEQ ID NO: 17]
[4]; after 20 days exposure, FIG. 19
  cell morphology: marked loss of normal cell morphology
[4]; no complete detachment of dead cells from the plastic surface
  cell morphology of cancerous cells: loss of clear cell morphology
[5]; 10 days exposure, 10 μM, FIG. 18
  stimulation of fibroblasts: marked non-cancerous fibroblast stimulation
[5]; between 5 and 10 days after exposure, 5.0 μM to 100 μM
  stimulation of fibroblasts: Marked stimulation

Reference: patent US8748389B2, “Treating cancer” (Theryte Limited, priority 2004, dated 2014)
